Some test systems named below: ACHN; CAKI-1; COLO 205; EKVX; HL-60; LOX IMVI; MOLT-4; NCI-H226; NCI-H460; NCI-H522; OVCAR-3; SF-268; SF-539; SK-MEL-28; SK-MEL-5; SW-620; A549; KM12; UACC-257; MCF7.
Holding throughout (test): NCI-60 cell line screen, 48 h

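How tested: cells in 96-well plates exposed to compound for 48 hours at five concentrations. GI50 marks 50% less growth.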 Active and inactive are the calls of the source. No stated cut-off is given here; in the data, active = GI50 up to about 1.1 µM and inactive = higher.

For `COc1ccccc1C1C(C(=O)O)=C(CO)Oc2cc3c(cc21)OCO3` (stereo not given), the GI50 in the assay with ACHN, with CAKI-1, with COLO 205, in the assay with EKVX, in the assay with HL-60 and in the assay on LOX IMVI was > 100 µM (inactive) throughout. For the same molecule, the GI50 with MOLT-4, with NCI-H226, in the assay with NCI-H460, with NCI-H522, in the assay on OVCAR-3 and with SF-268 was > 100 µM (inactive) each time. For the same molecule, the GI50 in the assay on SF-539, with SK-MEL-28, in the assay with SK-MEL-5 and in the assay with SW-620 was > 100 µM (inactive) throughout.

Take `CCOC(=O)C1=C(Nc2ccccc2)OC/C1=N\NC(=O)Cc1ccccc1`: the GI50 in the assay with A549, in the assay on CAKI-1, in the assay on COLO 205, with EKVX, in the assay with HL-60 and in the assay on KM12 was > 50 µM (inactive) in each case. Further, the GI50 with LOX IMVI, in the assay on MOLT-4, in the assay with NCI-H226, with NCI-H460, with NCI-H522 and with OVCAR-3 was > 50 µM (inactive) each time. The GI50 with SF-268, in the assay on SF-539, in the assay on SK-MEL-28, in the assay on SK-MEL-5, with SW-620 and in the assay on UACC-257 was > 50 µM (inactive) each time.

Turning to `Cc1cc(C(C)(C)C)cc(Cc2cc(C(C)(C)C)cc(Cc3cc(C(C)(C)C)cc(C)c3O)c2O)c1O`, the GI50 was 5.86 µM (inactive) in the assay with A549; 12.6 µM (inactive) in the assay on CAKI-1; 16.2 µM (inactive) in the assay on COLO 205; 10.8 µM (inactive) in the assay with EKVX; 3.71 µM (inactive) in the assay with HL-60; 9.66 µM (inactive) in the assay with KM12. Besides, the GI50 in the assay with LOX IMVI is 7.73 µM (inactive); in the assay with MOLT-4, 3.04 µM (inactive); with NCI-H226 it was 12.1 µM (inactive); with NCI-H460, 10.1 µM (inactive); in the assay with NCI-H522, 3.71 µM (inactive); in the assay on OVCAR-3, 4.75 µM (inactive). In addition, the GI50 in the assay with SF-268 was 2.89 µM (inactive); in the assay on SF-539 it was 7.71 µM (inactive); with SK-MEL-5, 10 µM (inactive); in the assay on SW-620, 5.28 µM (inactive); in the assay on UACC-257 it was 8.45 µM (inactive).

For the molecule `CCCCN(CCCC)C(=O)C(=O)C(C#N)c1ccc(C)cc1` (stereo not given), the GI50 in the assay with A549, in the assay with ACHN, in the assay on CAKI-1, in the assay on EKVX, in the assay with HL-60 and with KM12 was > 100 µM (inactive) throughout. Moreover, the GI50 with LOX IMVI, in the assay with MOLT-4, with NCI-H226, with NCI-H460, in the assay with NCI-H522 and in the assay on OVCAR-3 was > 100 µM (inactive) throughout. Moreover, the GI50 with SF-268, with SF-539, in the assay on SK-MEL-28, in the assay with SK-MEL-5, with SW-620 and in the assay on UACC-257 was > 100 µM (inactive) throughout.

As for `CC1CN=C(N(C(=O)Nc2ccc(Cl)c(Cl)c2)c2ccccc2)S1` (stereo not given), the GI50 in the assay on A549 is 53.7 µM (inactive); with ACHN it was 57.8 µM (inactive); with CAKI-1 it was 77.6 µM (inactive); in the assay with COLO 205, 37.2 µM (inactive); in the assay on EKVX, 71.1 µM (inactive); in the assay on HL-60 it was > 10 µM (inactive). Moreover, the GI50 is 32.1 µM (inactive) with KM12; 28.7 µM (inactive) with LOX IMVI; 28.2 µM (inactive) in the assay with MCF7; > 100 µM (inactive) with MOLT-4; 43.4 µM (inactive) in the assay on NCI-H460; 68.1 µM (inactive) in the assay with OVCAR-3. For the same molecule, the GI50 was 69.2 µM (inactive) in the assay on SF-268; 39.4 µM (inactive) in the assay on SF-539; 38.5 µM (inactive) in the assay with SK-MEL-28; 20.7 µM (inactive) in the assay on SK-MEL-5; 72.1 µM (inactive) with SW-620; 68.5 µM (inactive) with UACC-257.

`CCC1=CCN(c2cc(C)ccn2)OC1c1ccc(OC)cc1` (stereo not given): the GI50 in the assay with A549 is 35.2 µM (inactive); in the assay with ACHN, 33.5 µM (inactive); with CAKI-1 it was 34.4 µM (inactive); in the assay on COLO 205 it was 16.3 µM (inactive); with EKVX, 40.6 µM (inactive); in the assay on HL-60, 22.5 µM (inactive). The GI50 was 31.2 µM (inactive) in the assay on KM12; 30.1 µM (inactive) in the assay with LOX IMVI; 26.9 µM (inactive) in the assay on MOLT-4; 38.3 µM (inactive) in the assay on NCI-H226; 31.7 µM (inactive) in the assay with NCI-H460; 16 µM (inactive) in the assay on NCI-H522. In addition, the GI50 in the assay with OVCAR-3 was 42.7 µM (inactive); with SF-268, 45.1 µM (inactive); in the assay with SF-539, > 10 µM (inactive); with SK-MEL-28, 24.1 µM (inactive); in the assay on SK-MEL-5, 16.9 µM (inactive); with SW-620, 38.1 µM (inactive). The GI50 with UACC-257 is 23.6 µM (inactive).

As for `CCCc1c(C(=O)OCC)[nH]c(-c2ccc(-c3[nH]c(C(=O)OCC)c(CCC)c3C(=O)OCC)o2)c1C(=O)OCC`, the GI50 with A549, in the assay with ACHN, in the assay with CAKI-1, in the assay on COLO 205, with EKVX and in the assay with HL-60 was > 100 µM (inactive) in each case. In addition, the GI50 in the assay on KM12, with LOX IMVI, in the assay on MOLT-4, in the assay on NCI-H226, in the assay with NCI-H460 and in the assay with NCI-H522 was > 100 µM (inactive) throughout. The GI50 with OVCAR-3, with SF-268, in the assay on SF-539, in the assay with SK-MEL-28, in the assay on SK-MEL-5 and in the assay on SW-620 was > 100 µM (inactive) throughout. For the same molecule, in the assay with UACC-257, the GI50 was > 100 µM (inactive).

Turning to `CC(=O)O[C@H]1CC[C@@]2(C)C(=CC[C@@H]3C2CC[C@]2(C)C(=O)NC(=O)CC32)C1` (stereo not given in full), the GI50 with A549 is > 100 µM (inactive); in the assay on ACHN it was > 100 µM (inactive); in the assay on CAKI-1, > 100 µM (inactive); in the assay on COLO 205, > 100 µM (inactive); with EKVX, > 100 µM (inactive); in the assay on HL-60, > 63.1 µM (inactive). Also, the GI50 was > 100 µM (inactive) in the assay on KM12; 40.3 µM (inactive) with LOX IMVI; > 100 µM (inactive) with MOLT-4; > 100 µM (inactive) in the assay with NCI-H226; > 100 µM (inactive) with NCI-H460; 27.9 µM (inactive) with NCI-H522. The GI50 in the assay on SF-268 is > 100 µM (inactive); in the assay on SF-539, > 100 µM (inactive); in the assay with SK-MEL-28, 53.5 µM (inactive); in the assay on SK-MEL-5, > 100 µM (inactive); in the assay with SW-620, > 56.6 µM (inactive); in the assay on UACC-257 it was > 100 µM (inactive).

For `COc1cc(/C=C2\CCC(C)C3=C2N=c2s/c(=C/c4ccc(Cl)cc4)c(=O)n2C3c2cc(OC)c(OC)c(OC)c2)cc(OC)c1OC` (stereo not given), the GI50 in the assay on A549, in the assay on ACHN, in the assay on CAKI-1, in the assay on EKVX, in the assay on HL-60 and with KM12 was > 100 µM (inactive) in each case. The GI50 in the assay on LOX IMVI, with MCF7, with MOLT-4, with SF-268, in the assay on SK-MEL-28 and in the assay with SK-MEL-5 was > 100 µM (inactive) in each case. The GI50 in the assay on SW-620 and in the assay on UACC-257 was > 100 µM (inactive) throughout.

Turning to `Cc1ccc(S(=O)(=O)NC(=O)Nc2nc(Cl)cc(Cl)n2)cc1`, the GI50 in the assay on A549, in the assay on ACHN, in the assay on CAKI-1, in the assay on COLO 205, in the assay with EKVX and in the assay on HL-60 was > 100 µM (inactive) in each case. For the same molecule, the GI50 with KM12 was > 100 µM (inactive); in the assay on LOX IMVI, > 100 µM (inactive); with MOLT-4, 57.7 µM (inactive); with NCI-H226 it was > 100 µM (inactive); with NCI-H460, > 100 µM (inactive); in the assay with NCI-H522 it was 5.89 µM (inactive). Besides, the GI50 in the assay with OVCAR-3, with SF-268, with SF-539, with SK-MEL-28, in the assay with SK-MEL-5 and with SW-620 was > 100 µM (inactive) throughout. For the same molecule, the GI50 in the assay with UACC-257 is 19.2 µM (inactive).

Consider `[O-][n+]1ccccc1S` [PYRITHIONE ZINC], for which the GI50 in the assay with A549 is 1.55 µM (inactive); in the assay on ACHN it was 3.21 µM (inactive); in the assay on CAKI-1 it was 5.13 µM (inactive); in the assay on COLO 205 it was 0.625 µM (active); in the assay with EKVX it was 2.98 µM (inactive); in the assay on HL-60 it was 0.232 µM (active). The GI50 in the assay on KM12 was 1.38 µM (inactive); with LOX IMVI, 1.4 µM (inactive); with MOLT-4, 0.0973 µM (active); with NCI-H226 it was 10.2 µM (inactive); in the assay on NCI-H460, 1.63 µM (inactive); in the assay on NCI-H522, 0.107 µM (active). The GI50 with OVCAR-3 was 0.304 µM (active); in the assay on SF-268 it was 1.03 µM (active); with SF-539, 1.97 µM (inactive); in the assay with SK-MEL-28, 1.97 µM (inactive); in the assay with SK-MEL-5, 1.22 µM (inactive); in the assay on SW-620, 0.161 µM (active). Moreover, the GI50 in the assay on UACC-257 is 2.09 µM (inactive).
